Experimental data published in BindingDB's records for doi:10.1124/jpet.103.049262 (Sanofi-Synthelabo Research, 2003).

Legend:
[1] = target: Neuronal acetylcholine receptor subunit alpha-4 (Homo sapiens, UniProt P43681)
[2] = target: Acetylcholine receptor subunit alpha (Homo sapiens, UniProt P02708)
Sequence of Acetylcholine receptor subunit alpha (P02708 as listed by the source): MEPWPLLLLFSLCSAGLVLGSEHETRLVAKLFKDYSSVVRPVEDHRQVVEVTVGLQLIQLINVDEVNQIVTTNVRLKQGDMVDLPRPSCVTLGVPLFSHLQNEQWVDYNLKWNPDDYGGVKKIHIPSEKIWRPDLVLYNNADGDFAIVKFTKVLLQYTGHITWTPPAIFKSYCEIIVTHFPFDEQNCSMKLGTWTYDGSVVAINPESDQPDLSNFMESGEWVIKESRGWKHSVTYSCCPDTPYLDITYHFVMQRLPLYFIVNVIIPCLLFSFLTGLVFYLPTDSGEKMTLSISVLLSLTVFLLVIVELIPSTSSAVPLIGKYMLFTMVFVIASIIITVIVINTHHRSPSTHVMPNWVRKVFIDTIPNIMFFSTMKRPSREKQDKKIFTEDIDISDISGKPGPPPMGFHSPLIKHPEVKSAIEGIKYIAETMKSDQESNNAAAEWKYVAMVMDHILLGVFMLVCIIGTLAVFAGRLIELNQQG

Sequence of Neuronal acetylcholine receptor subunit alpha-4 (P43681 whole entry): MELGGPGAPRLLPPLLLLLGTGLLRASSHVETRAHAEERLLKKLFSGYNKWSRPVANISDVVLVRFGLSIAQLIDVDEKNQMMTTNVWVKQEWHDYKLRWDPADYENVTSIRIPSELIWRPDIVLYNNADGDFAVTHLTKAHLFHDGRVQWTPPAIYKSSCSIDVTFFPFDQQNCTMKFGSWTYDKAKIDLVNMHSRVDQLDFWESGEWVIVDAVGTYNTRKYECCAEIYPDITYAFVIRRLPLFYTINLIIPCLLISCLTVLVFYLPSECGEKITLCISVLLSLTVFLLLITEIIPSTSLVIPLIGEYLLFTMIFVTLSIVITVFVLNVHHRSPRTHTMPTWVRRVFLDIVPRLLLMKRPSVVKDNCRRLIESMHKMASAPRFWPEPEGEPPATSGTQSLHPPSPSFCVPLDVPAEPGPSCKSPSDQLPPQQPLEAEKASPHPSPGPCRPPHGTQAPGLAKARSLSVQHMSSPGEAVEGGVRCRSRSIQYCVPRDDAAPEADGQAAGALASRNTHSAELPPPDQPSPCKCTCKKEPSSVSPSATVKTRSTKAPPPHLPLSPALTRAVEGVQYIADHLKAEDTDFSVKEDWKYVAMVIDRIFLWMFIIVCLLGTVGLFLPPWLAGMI

`c1cnc2c(c1)O[C@H]1CCN3CC[C@@]1(C2)C3` was tested, and the Ki [1] was 0.036 µM and the Ki [2] was 6 µM.
